Laboratory results taken from US20120094998A1, “Oligomer-Protein Tyrosine Kinase Inhibitor Conjugates” (Nektar Therapeutics, priority 2009, published 2012).
Where two headings read alike, the source gives them in different places.

Experiments:
Format in all cases: biochemical
TSSK2 = target: T1, TSSK2 (Homo sapiens, UniProt Q96PF2); assay: Activity against various protein tyrosine kinases: TSSK2; conditions: for inhibition at 0.01 µM: 10 nM
T1 sequence (Q96PF2 1-358): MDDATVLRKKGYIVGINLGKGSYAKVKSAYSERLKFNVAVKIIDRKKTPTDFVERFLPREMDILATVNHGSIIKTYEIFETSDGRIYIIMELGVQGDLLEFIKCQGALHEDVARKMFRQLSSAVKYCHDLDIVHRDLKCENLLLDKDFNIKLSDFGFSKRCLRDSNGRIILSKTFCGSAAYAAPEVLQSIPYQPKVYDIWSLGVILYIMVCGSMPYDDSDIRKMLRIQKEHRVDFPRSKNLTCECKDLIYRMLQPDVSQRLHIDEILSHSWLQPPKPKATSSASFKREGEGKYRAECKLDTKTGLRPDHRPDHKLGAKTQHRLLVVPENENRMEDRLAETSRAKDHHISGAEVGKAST
Protocol: (§1) Using techniques know those of ordinary skill in the art, compounds were tested for activity against various protein tyrosine kinases.

PDGFR_alpha = PDGFR_alpha (Homo sapiens, UniProt P16234); assay: Activity against various protein tyrosine kinases: PDGFR_alpha; conditions: for inhibition at 0.01 µM: 10 nM
Protocol: as §1

cKIT = cKIT (Homo sapiens, UniProt P10721); assay: Activity against various protein tyrosine kinases: CKIT; parameters: purchased MILLIPORE 14-559; conditions: for inhibition at 0.01 µM: 10 nM
Protocol: as §1

p38a = p38a (Homo sapiens, UniProt Q16539); assay: Activity against various protein tyrosine kinases: p38a; conditions: for inhibition at 0.01 µM: 10 nM; for inhibition at 1 µM: read-out: % Inhibition at 1 μM
Protocol: as §1

AKT1 = AKT1 (Homo sapiens, UniProt P31749); assay: Activity against various protein tyrosine kinases: AKT1; conditions: for inhibition at 0.01 µM: 10 nM
Protocol: as §1

CHK2 = CHK2 (Homo sapiens, UniProt O96017); assay: Activity against various protein tyrosine kinases: CHK2; conditions: for inhibition at 0.01 µM: 10 nM
Protocol: as §1

Erk2 = Erk2 (Homo sapiens, UniProt P28482); assay: Activity against various protein tyrosine kinases: Erk2; conditions: for inhibition at 0.01 µM: 10 nM
Protocol: as §1

AKT3 = AKT3 (Homo sapiens, UniProt Q9Y243); assay: Activity against various protein tyrosine kinases: AKT3; conditions: for inhibition at 0.01 µM: 10 nM
Protocol: as §1

PKCz = target: T2, PKCz (Homo sapiens, UniProt Q05513); assay: Activity against various protein tyrosine kinases: PKCz; conditions: for inhibition at 0.01 µM: 10 nM
T2 sequence (Q05513 1-592): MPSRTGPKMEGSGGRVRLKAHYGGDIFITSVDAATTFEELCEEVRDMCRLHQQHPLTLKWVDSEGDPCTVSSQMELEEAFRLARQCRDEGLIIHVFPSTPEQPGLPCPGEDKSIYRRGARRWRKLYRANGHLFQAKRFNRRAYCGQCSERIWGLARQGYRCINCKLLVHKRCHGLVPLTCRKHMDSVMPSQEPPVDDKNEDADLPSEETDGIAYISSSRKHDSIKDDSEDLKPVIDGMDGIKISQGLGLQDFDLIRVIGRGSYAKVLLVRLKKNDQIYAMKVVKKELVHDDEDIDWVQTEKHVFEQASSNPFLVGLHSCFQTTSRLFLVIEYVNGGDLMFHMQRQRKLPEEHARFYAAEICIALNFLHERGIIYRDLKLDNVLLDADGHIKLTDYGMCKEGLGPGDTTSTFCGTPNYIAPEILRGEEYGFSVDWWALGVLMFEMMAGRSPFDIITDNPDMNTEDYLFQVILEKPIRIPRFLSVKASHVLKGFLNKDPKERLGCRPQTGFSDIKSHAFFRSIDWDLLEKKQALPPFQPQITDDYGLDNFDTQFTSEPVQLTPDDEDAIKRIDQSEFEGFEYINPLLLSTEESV
Protocol: as §1

p38-beta2 = p38-beta2 (Homo sapiens, UniProt Q15759); assay: Activity against various protein tyrosine kinases: p38-beta2; conditions: for inhibition at 0.01 µM: 10 nM
Protocol: as §1

CaMKII (beta) = CaMKII (beta) (Homo sapiens, UniProt Q13554); assay: Activity against various protein tyrosine kinases: CaMKII (beta); conditions: for inhibition at 0.01 µM: 10 nM
Protocol: as §1

TSSK1 = target: T3, TSSK1 (Homo sapiens, UniProt Q9BXA7); assay: Activity against various protein tyrosine kinases: TSSK1; conditions: for inhibition at 0.01 µM: 10 nM
T3 sequence (Q9BXA7 1-367): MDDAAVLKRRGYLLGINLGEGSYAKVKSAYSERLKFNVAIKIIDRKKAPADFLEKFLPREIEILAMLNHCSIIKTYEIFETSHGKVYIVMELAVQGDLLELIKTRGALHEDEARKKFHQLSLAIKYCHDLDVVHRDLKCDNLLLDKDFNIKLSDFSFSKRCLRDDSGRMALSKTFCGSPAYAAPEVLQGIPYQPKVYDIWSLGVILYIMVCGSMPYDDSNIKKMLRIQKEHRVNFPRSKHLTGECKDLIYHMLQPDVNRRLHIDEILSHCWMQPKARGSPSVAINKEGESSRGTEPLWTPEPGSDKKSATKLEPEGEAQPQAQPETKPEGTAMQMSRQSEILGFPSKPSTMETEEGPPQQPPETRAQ
Protocol: as §1

CHK1 = target: T4, CHK1 (Homo sapiens, UniProt O14757); assay: Activity against various protein tyrosine kinases: CHK1; conditions: for inhibition at 0.01 µM: 10 nM
T4 sequence (O14757 1-476): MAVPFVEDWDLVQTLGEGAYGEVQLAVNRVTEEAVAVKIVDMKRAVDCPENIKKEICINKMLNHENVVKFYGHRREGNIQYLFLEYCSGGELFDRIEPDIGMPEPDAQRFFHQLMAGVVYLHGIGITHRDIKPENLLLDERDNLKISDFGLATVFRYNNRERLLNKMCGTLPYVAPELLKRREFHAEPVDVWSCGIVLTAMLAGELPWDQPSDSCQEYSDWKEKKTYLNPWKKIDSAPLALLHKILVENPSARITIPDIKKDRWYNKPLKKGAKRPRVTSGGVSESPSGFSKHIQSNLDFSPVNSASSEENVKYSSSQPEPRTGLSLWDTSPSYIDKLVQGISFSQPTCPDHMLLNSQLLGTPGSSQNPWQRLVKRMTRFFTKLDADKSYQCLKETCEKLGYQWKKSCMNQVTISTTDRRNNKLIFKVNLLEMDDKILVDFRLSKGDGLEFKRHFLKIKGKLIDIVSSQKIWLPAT
Protocol: as §1

GSK3b = GSK3b (Homo sapiens, UniProt P49841); assay: Activity against various protein tyrosine kinases: GSK3b; conditions: for inhibition at 0.01 µM: 10 nM
Protocol: as §1

FGFR2 (N549H) = FGFR2 (N549H) (Homo sapiens, UniProt P21802, N549H); assay: Activity against various protein tyrosine kinases: FGFR2 (N549H); conditions: for inhibition at 0.01 µM: 10 nM
Protocol: as §1

Chain of p38a (Q16539 whole entry): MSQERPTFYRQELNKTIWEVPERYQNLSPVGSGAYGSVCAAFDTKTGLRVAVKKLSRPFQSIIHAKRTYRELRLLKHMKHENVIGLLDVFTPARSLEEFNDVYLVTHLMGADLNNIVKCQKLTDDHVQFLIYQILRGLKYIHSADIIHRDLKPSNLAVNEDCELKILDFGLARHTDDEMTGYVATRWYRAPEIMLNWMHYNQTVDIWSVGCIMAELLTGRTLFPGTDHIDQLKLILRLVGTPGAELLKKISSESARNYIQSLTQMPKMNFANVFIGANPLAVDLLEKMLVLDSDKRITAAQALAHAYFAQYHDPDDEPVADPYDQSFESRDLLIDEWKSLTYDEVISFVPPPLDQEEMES
Chain of p38-beta2 (Q15759 whole entry): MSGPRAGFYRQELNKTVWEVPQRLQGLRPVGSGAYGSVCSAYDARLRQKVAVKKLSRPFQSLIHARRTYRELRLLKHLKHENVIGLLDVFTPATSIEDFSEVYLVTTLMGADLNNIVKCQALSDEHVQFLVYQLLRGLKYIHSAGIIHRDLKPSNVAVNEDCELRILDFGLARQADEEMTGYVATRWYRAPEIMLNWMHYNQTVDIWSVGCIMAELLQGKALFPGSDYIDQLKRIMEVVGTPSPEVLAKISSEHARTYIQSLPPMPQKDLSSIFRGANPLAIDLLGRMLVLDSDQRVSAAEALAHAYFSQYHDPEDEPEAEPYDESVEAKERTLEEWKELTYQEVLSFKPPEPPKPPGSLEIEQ
Chain of FGFR2 (N549H) (P21802 22-821 N549H, species assumed): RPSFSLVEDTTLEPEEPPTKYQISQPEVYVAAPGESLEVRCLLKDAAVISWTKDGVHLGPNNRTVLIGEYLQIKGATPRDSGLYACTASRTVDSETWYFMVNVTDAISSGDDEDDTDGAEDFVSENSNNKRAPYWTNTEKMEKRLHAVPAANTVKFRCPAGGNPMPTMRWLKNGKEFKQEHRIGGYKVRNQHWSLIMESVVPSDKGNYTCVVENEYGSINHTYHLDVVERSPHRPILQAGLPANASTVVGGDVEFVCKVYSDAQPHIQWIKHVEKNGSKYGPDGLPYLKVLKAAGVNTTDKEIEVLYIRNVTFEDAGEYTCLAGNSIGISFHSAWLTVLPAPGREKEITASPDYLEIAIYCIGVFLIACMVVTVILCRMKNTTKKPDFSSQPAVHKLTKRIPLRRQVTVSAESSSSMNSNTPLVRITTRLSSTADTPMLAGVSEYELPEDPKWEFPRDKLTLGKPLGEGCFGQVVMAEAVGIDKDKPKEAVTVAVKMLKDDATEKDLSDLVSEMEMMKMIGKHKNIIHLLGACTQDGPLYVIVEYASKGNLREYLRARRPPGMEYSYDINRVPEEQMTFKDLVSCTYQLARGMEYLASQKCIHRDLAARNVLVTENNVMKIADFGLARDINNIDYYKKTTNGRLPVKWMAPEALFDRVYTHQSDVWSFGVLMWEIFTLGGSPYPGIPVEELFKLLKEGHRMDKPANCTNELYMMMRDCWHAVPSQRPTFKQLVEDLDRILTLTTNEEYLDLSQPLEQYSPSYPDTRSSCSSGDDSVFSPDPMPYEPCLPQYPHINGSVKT
Chain of PDGFR_alpha (P16234 24-1089, species assumed): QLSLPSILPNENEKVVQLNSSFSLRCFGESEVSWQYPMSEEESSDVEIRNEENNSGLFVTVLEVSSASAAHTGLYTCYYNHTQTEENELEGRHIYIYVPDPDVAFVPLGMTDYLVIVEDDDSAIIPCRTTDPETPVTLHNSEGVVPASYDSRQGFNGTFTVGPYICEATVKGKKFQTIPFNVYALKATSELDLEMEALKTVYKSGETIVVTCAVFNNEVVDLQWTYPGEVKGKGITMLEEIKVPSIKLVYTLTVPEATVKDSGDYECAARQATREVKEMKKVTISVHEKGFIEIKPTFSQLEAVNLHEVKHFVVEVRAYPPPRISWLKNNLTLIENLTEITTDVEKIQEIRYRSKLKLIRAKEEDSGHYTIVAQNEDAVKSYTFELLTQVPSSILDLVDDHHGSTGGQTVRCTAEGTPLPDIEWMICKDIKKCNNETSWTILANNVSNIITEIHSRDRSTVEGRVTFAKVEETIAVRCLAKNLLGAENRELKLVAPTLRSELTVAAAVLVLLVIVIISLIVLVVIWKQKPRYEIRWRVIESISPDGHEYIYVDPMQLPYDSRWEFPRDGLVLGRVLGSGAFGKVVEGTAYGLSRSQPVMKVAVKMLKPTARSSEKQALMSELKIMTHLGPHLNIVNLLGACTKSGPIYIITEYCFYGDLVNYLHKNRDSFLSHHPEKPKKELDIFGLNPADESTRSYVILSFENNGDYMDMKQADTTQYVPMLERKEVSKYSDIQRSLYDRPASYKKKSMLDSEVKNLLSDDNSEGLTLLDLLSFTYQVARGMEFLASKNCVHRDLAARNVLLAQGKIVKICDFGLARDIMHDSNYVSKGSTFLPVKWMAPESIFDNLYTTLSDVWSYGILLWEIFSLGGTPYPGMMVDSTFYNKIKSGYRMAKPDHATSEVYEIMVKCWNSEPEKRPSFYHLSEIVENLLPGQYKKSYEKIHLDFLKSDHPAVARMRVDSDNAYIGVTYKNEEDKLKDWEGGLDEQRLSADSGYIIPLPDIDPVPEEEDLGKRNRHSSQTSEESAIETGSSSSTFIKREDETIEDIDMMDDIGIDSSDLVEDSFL
Chain of cKIT (P10721 26-976): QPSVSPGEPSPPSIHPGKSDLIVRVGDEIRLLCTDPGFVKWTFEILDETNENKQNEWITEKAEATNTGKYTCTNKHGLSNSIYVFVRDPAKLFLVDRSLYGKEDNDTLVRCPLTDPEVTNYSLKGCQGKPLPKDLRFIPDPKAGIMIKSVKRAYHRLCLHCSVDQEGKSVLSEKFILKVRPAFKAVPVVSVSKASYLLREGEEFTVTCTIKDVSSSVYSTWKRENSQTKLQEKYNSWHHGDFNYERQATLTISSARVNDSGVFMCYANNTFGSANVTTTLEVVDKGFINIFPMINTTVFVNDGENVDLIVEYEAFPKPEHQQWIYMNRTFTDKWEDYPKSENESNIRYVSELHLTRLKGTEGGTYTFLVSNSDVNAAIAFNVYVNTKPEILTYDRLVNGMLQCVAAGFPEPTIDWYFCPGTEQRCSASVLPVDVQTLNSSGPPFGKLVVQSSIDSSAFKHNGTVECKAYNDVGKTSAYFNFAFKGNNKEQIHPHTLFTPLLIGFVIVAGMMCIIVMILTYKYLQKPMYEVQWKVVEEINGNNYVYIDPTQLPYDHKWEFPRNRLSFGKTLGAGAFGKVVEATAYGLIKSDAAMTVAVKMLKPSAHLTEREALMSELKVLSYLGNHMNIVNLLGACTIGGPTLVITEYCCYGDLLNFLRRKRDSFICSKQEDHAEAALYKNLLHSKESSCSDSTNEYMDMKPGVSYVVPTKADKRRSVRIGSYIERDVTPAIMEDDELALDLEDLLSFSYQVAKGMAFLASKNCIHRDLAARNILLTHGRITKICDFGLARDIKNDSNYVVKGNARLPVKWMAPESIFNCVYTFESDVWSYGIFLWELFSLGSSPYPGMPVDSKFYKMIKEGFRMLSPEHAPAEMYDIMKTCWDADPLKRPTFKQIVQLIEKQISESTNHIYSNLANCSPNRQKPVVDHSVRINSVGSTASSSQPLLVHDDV
Chain of CHK2 (O96017 whole entry, species assumed): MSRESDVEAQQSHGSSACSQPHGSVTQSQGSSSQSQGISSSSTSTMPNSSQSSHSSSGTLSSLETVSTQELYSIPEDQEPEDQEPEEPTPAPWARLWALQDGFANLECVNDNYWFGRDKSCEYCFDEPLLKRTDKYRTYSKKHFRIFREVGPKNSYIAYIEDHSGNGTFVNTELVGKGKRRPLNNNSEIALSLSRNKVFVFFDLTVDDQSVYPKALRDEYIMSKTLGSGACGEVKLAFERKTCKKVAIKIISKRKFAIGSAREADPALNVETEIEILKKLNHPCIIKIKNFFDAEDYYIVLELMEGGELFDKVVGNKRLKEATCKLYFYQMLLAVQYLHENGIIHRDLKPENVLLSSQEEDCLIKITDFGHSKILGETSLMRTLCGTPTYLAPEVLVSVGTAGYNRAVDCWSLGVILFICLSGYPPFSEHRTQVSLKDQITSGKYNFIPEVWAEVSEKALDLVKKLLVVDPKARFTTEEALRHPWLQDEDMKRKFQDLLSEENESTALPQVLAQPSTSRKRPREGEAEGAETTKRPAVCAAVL
Chain of AKT1 (P31749 whole entry, species assumed): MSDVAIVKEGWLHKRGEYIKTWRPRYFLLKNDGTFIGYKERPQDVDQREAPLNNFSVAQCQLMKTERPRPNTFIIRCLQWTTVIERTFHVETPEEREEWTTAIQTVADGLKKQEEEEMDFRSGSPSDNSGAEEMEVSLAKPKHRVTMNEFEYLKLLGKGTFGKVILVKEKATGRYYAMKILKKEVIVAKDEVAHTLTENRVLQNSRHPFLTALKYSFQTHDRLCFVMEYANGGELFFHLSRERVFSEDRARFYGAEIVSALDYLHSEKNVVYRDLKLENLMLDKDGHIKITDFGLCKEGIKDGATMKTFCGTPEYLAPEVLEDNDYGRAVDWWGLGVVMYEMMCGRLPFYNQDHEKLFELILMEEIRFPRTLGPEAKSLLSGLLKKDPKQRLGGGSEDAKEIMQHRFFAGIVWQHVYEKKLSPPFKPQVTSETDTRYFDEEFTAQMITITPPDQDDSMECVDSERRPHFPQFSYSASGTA
Chain of GSK3b (P49841 whole entry, species assumed): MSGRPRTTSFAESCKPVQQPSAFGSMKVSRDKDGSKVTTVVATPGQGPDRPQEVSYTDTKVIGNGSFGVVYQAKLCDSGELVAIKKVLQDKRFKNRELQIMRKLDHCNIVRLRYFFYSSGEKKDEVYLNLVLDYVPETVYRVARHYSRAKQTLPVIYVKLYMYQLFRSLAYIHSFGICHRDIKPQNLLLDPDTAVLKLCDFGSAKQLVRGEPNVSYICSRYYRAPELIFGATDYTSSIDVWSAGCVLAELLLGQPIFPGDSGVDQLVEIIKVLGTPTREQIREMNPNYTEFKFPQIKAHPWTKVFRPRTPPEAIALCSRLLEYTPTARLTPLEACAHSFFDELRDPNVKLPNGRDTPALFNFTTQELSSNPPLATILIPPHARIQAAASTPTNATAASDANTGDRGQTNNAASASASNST

| inhibition at 0.01 µM (TSSK2) [%] | inhibition at 1 µM (TSSK2) [%] | inhibition at 0.01 µM (PDGFR_alpha) [%] | inhibition at 0.01 µM (cKIT) [%] | inhibition at 0.01 µM (AKT1) [%] | inhibition at 1 µM (AKT1) [%] | inhibition at 0.01 µM (CHK2) [%] | inhibition at 0.01 µM (Erk2) [%] | inhibition at 0.01 µM (AKT3) [%] | inhibition at 1 µM (AKT3) [%] | inhibition at 0.01 µM (PKCz) [%] | inhibition at 0.01 µM (p38-beta2) [%] | inhibition at 1 µM (p38-beta2) [%] | inhibition at 1 µM (CaMKII (beta)) [%] | inhibition at 0.01 µM (TSSK1) [%] | inhibition at 1 µM (TSSK1) [%] | inhibition at 0.01 µM (CHK1) [%] | inhibition at 0.01 µM (GSK3b) [%] | inhibition at 0.01 µM (FGFR2 (N549H)) [%] | inhibition at 1 µM (FGFR2 (N549H)) [%] | Structure (SMILES) | further results |
| --- | --- | --- | --- | --- | --- | --- | --- | --- | --- | --- | --- | --- | --- | --- | --- | --- | --- | --- | --- | --- | --- |
| 3 | -2 | 46 | 34 | -1 | 0 | 2 | 3 | -3 | -2 | 5 | 0 | 35 | 2 | -3 | -5 | 10 | 3 | 5 | 63 | COCCOCCOCCOCCOCCOCCOCCNC(=O)OCCN1CCN(c2cc(Nc3ncc(C(=O)Nc4c(C)cccc4Cl)s3)nc(C)n2)CC1 [mPEG7-NHCOO-Dasatinib] | inhibition at 1 µM (PDGFR_alpha): 98%; inhibition at 1 µM (cKIT): 100%; inhibition at 0.01 µM (p38a; p38a): 5%; inhibition at 1 µM (p38a; p38a, 1 μM): 74%; inhibition at 1 µM (CHK2): 1%; inhibition at 1 µM (Erk2): 2%; inhibition at 1 µM (PKCz): -9%; inhibition at 0.01 µM (CaMKII (beta)): 1%; inhibition at 1 µM (CHK1): 8%; inhibition at 1 µM (GSK3b): 2% |
| -1 | 0 | 58 | 34 | 7 | 0 | 1 | 6 | 0 | -1 | -12 | 3 | 48 | 2 | -1 | 0 | -2 | 4 | 7 | 75 | COCCOCCOCCNC(=O)OCCN1CCN(c2cc(Nc3ncc(C(=O)Nc4c(C)cccc4Cl)s3)nc(C)n2)CC1 [mPEG3-NHCOO-Dasatinib] | inhibition at 1 µM (PDGFR_alpha): 99%; inhibition at 1 µM (cKIT): 100%; inhibition at 0.01 µM (p38a; p38a): 6%; inhibition at 1 µM (p38a; p38a, 1 μM): 81%; inhibition at 1 µM (CHK2): 11%; inhibition at 1 µM (Erk2): 11%; inhibition at 1 µM (PKCz): -13%; inhibition at 0.01 µM (CaMKII (beta)): 1%; inhibition at 1 µM (CHK1): 0%; inhibition at 1 µM (GSK3b): 1% |

| Structure (SMILES) | inhibition at 0.01 µM (TSSK2) [%] | inhibition at 1 µM (TSSK2) [%] | inhibition at 0.01 µM (PDGFR_alpha) [%] | inhibition at 0.01 µM (cKIT) [%] | inhibition at 0.01 µM (AKT1) [%] | inhibition at 1 µM (AKT1) [%] | inhibition at 0.01 µM (CHK2) [%] | inhibition at 0.01 µM (Erk2) [%] | inhibition at 0.01 µM (AKT3) [%] | inhibition at 1 µM (AKT3) [%] | inhibition at 0.01 µM (PKCz) [%] | inhibition at 0.01 µM (p38-beta2) [%] | inhibition at 1 µM (p38-beta2) [%] | inhibition at 1 µM (CaMKII (beta)) [%] | inhibition at 0.01 µM (TSSK1) [%] | inhibition at 1 µM (TSSK1) [%] | inhibition at 0.01 µM (CHK1) [%] | inhibition at 0.01 µM (GSK3b) [%] | inhibition at 0.01 µM (FGFR2 (N549H)) [%] | inhibition at 1 µM (FGFR2 (N549H)) [%] | further results |
| --- | --- | --- | --- | --- | --- | --- | --- | --- | --- | --- | --- | --- | --- | --- | --- | --- | --- | --- | --- | --- | --- |
| Cc1nc(Nc2ncc(C(=O)Nc3c(C)cccc3Cl)s2)cc(N2CCN(CCO)CC2)n1 [Dasatinib, reference compound] | -3 |  | 10 | 30 | -6 | -2 | 3 | -2 | -3 | -4 | 2 | -2 | 34 | 3 | -5 | -6 | 3 | 7 | 6 | 71 | inhibition at 1 µM (p38a): 75% |
